Laboratory results taken from ChEMBL document CHEMBL3039007, “Structure-based identification of OATP1B1/3 inhibitors” (Mol Pharmacol, 2013).
Positions of bridges follow the written chain, without caps; N, C: chain ends. Non-standard residues stand in square brackets, D forms with d. Residues, ends and D or L forms follow the SMILES beside them. *: point of attachment. Ileψ(thiazoline)Cys = CC[C@H](C)[C@H](N)C1=N[C@H](C(=O)*)CS1; dOrn = NCCC[C@@H](N)C(=O)O

How the values were obtained:
[1] = molecular target: T1, Solute carrier organic anion transporter family member 1B1 (Homo sapiens, UniProt Q9Y6L6); conditions: chinese hamster, cho, 10 µM
T1 sequence (Q9Y6L6 whole entry): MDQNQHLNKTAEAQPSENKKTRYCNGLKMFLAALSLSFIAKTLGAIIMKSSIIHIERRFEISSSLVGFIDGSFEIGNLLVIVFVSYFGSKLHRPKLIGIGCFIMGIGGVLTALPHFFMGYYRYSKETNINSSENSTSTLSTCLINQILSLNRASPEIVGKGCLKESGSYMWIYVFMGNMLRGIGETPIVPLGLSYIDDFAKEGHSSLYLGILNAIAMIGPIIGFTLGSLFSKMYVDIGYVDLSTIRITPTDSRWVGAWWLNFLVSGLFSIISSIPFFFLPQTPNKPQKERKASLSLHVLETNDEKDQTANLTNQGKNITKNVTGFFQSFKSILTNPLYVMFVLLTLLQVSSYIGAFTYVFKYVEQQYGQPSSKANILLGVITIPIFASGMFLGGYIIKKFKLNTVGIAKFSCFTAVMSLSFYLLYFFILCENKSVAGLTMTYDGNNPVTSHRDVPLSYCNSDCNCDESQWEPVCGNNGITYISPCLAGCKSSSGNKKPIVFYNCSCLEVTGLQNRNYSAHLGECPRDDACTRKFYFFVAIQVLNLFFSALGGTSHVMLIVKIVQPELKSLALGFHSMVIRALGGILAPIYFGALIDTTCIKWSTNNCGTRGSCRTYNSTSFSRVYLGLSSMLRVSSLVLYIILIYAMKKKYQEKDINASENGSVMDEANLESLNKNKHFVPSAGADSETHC

[2] = molecular target: T2, Solute carrier organic anion transporter family member 1B3 (Homo sapiens, UniProt Q9NPD5); conditions: chinese hamster, cho, 10 µM
T2 sequence (Q9NPD5 whole entry): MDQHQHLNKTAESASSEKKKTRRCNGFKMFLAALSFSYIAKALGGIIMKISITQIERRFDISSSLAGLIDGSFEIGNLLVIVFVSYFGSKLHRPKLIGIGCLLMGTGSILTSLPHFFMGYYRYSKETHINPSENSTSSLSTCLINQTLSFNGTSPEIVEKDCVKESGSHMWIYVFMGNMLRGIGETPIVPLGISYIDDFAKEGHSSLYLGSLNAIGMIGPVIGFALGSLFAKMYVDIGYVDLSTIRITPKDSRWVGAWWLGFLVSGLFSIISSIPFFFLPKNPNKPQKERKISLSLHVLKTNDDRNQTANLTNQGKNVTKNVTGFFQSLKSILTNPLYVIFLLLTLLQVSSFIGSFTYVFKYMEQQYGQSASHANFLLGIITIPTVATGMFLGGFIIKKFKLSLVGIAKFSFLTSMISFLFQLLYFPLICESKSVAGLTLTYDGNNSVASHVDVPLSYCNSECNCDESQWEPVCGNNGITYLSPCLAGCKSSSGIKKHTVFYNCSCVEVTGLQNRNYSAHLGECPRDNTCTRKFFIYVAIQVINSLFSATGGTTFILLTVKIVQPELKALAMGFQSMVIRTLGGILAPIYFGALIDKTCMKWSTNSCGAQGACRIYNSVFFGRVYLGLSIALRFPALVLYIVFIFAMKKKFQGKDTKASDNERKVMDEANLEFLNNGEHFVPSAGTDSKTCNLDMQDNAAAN

Structure (SMILES)	residual activity [1] [%]	residual activity [2] [%]
c1ccc(/N=N/c2ccccc2)cc1 [AZOBENZENE]	216.3	112.1
CCOC(=O)OC(C)OC(=O)[C@@H]1N2C(=O)[C@@H](NC(=O)[C@H](N)c3ccccc3)[C@H]2SC1(C)C.Cl (stereo not given in full) [BACAMPICILLIN HYDROCHLORIDE]	46.45	80.61
CC[C@H](C)[C@H](N)C1=N[C@H](C(=O)N[C@@H](CC(C)C)C(=O)N[C@H](CCC(=O)O)C(=O)N[C@H](C(=O)N[C@H]2CCCCNC(=O)[C@H](CC(N)=O)NC(=O)[C@@H](CC(=O)O)NC(=O)[C@H](Cc3cnc[nH]3)NC(=O)[C@@H](Cc3ccccc3)NC(=O)[C@H]([C@@H](C)CC)NC(=O)[C@@H](CCCN)NC2=O)[C@@H](C)CC)CS1 [BACITRACIN] ({Ileψ(thiazoline)Cys}-L[dE]IK[dOrn]I[dF]H[dD]N; lactam 4-C)	78.2	77.52
NCC(CC(=O)O)c1ccc(Cl)cc1 (stereo not given) [BACLOFEN]	80.8	102.2
COc1cc(C)c(C(=O)Oc2cc(C)c(C(=O)O)c(O)c2C)c(O)c1C=O [BAEOMYCESIC ACID]	23.01	46.77
O=c1cc(-c2ccccc2)oc2cc(O)c(O)c(O)c12 [BAICALEIN]	91.06	90.2
CCCCCCCCCCCCCCCCCCOCC(O)CO (stereo not given) [BATILOL]	92.94	108.3
COc1cc2c3cc1Oc1cc(ccc1O)CC1c4c(cc(OC)c(O)c4Oc4ccc(cc4)CC3N(C)CC2)CCN1C (stereo not given) [BEBEERINE]	53.34	74.29
CCC(=O)OCC(=O)[C@@]1(OC(=O)CC)[C@@H](C)C[C@H]2[C@@H]3CCC4=CC(=O)C=C[C@]4(C)[C@@]3(Cl)[C@@H](O)C[C@@]21C [BECLOMETHASONE DIPROPIONATE]	41.53	14.78
NC[C@H]1O[C@H](O[C@H]2[C@H](O)[C@@H](O[C@H]3O[C@H](CO)[C@@H](O)[C@H](N)[C@H]3O)[C@H](N)C[C@@H]2N)[C@H](N)[C@@H](O)[C@@H]1O.O=S(=O)(O)O [BEKANAMYCIN SULFATE]	101.9	118.1
CCOC(=O)[C@H](CCc1ccccc1)N[C@H]1CCc2ccccc2N(CC(=O)O)C1=O.Cl [BENAZEPRIL HYDROCHLORIDE]	101.2	84.15
CNC(=O)Oc1cccc2c1OC(C)(C)O2 [BENDIOCARB]	88.1	84.46
CC(Cc1cccc(C(F)(F)F)c1)NCCOC(=O)c1ccccc1.Cl (stereo not given) [BENFLUOREX HYDROCHLORIDE]	93.54	87.71
CCCCN(CC)c1c([N+](=O)[O-])cc(C(F)(F)F)cc1[N+](=O)[O-] [BENFLURALIN]	96.31	100.4
Cl.NC(CO)C(=O)NNCc1ccc(O)c(O)c1O (stereo not given) [BENSERAZIDE HYDROCHLORIDE]	93.51	93.94
CC(C)N1C(=O)c2ccccc2NS1(=O)=O [BENTAZON]	109.9	96.3
Cl.N/C(=N\C(=O)c1nc(Cl)c(N)nc1N)NCc1ccccc1 [BENZAMIL HYDROCHLORIDE]	93.84	105
O=C1c2ccccc2-c2cccc3cccc1c23 [BENZANTHRONE]	127.3	69.74
CCOC(=O)c1ccc(N)cc1 [BENZOCAINE]	129.5	100.6
NS(=O)(=O)c1cc2c(cc1Cl)N=C(CSCc1ccccc1)NS2(=O)=O [BENZTHIAZIDE]	74.12	56.86
O=C(OCc1ccccc1)c1ccccc1 [BENZYL BENZOATE]	125.1	74.09
S=C=NCc1ccccc1 [BENZYL ISOTHIOCYANATE]	170.7	101.9
Cl.NNCc1ccccc1 [BENZYLHYDRAZINE HYDROCHLORIDE]	122.4	108.9

Structure (SMILES)	residual activity [1] [%]	residual activity [2] [%]
CC(C)COCC(CN(Cc1ccccc1)c1ccccc1)N1CCCC1.Cl.O (stereo not given) [BEPRIDIL HYDROCHLORIDE]	124.1	131.3
COc1ccc2cc3[n+](cc2c1OC)CCc1cc2c(cc1-3)OCO2.[Cl-] [BERBERINE CHLORIDE]	110.4	108.4
COc1c2ccoc2cc2oc(=O)ccc12 [BERGAPTEN]	93.84	97.44
COc1c(O)cc2c(c1O)[C@@H]1O[C@H](CO)[C@@H](O)[C@H](O)[C@H]1OC2=O [BERGENIN]	14.59	94.52
C=C1CC/C=C(\C)CC[C@@H]2[C@@H]1CC2(C)C [BETA-CARYOPHYLLENE]	99.94	88.67
COc1cc([C@@H]2c3cc4c(c(O)c3C[C@H]3COC(=O)[C@@H]32)OCO4)cc(OC)c1OC [BETA-PELTATIN A]	78.87	101.7
C[N+](C)(C)CC(=O)O.[Cl-] [BETAINE HYDROCHLORIDE]	82.22	113.7
CCCCC(=O)O[C@]1(C(=O)CO)[C@@H](C)C[C@H]2[C@@H]3CCC4=CC(=O)C=C[C@]4(C)[C@@]3(F)[C@@H](O)C[C@@]21C [BETAMETHASONE VALERATE]	38.6	10.24
C[C@H]1C[C@H]2[C@@H]3CCC4=CC(=O)C=C[C@]4(C)[C@@]3(F)[C@@H](O)C[C@]2(C)[C@@]1(O)C(=O)CO [BETAMETHASONE]	76.17	102.7
O=C(O)CCNC(=O)c1ccccc1 [BETAMIPRON]	116.1	92.61
CC(C[N+](C)(C)C)OC(N)=O.[Cl-] (stereo not given) [BETHANECHOL CHLORIDE]	111.1	100
C[N+]1(C)C[C@@H](O)C[C@@H]1C(=O)[O-] [BETONICINE]	89.8	105.3
C=C(C)[C@@H]1CC[C@]2(C(=O)O)CC[C@]3(C)[C@H](CC[C@@H]4[C@@]5(C)CC[C@H](O)C(C)(C)[C@@H]5CC[C@]43C)[C@@H]12 [BETULINIC ACID]	25.94	38.62
C=C(C)[C@@H]1CC[C@]2(CO)CC[C@]3(C)[C@H](CC[C@@H]4[C@@]5(C)CC[C@H](O)C(C)(C)[C@@H]5CC[C@]43C)[C@@H]12 [BETULIN]	106.3	92.43
CC(C)(Oc1ccc(CCNC(=O)c2ccc(Cl)cc2)cc1)C(=O)O [BEZAFIBRATE]	72.82	74.47
c1ccc(-c2ccc(C(c3ccccc3)n3ccnc3)cc2)cc1 (stereo not given) [BIFONAZOLE]	121.1	115.7
COc1ccc(-c2coc3cc(OC)cc(OC)c3c2=O)cc1 [BIOCHANIN A, DIMETHYL ETHER]	100.7	81.69
COc1ccc(-c2coc3cc(O)cc(O)c3c2=O)cc1 [BIOCHANIN]	98.38	113.5
O=C(O)CCCC[C@@H]1SC[C@@H]2NC(=O)N[C@@H]21 [BIOTIN]	93.06	96.7
CC(=O)O[C@@](C)(CCC=C(C)C)C1CC=C(C)CC1 (stereo not given in full) [BISABOLOL ACETATE]	80.65	92.66
CC(=O)Oc1ccc(C(c2ccc(OC(C)=O)cc2)c2ccccn2)cc1 [BISACODYL]	97.08	103.3
CCc1ccc2c(O)c3c(cc2c1C(=O)OC)C(=O)c1c(O)ccc(O)c1C3=O [BISANHYDRORUTILANTINONE]	104.1	115.2
